Measurements reported in patent US20040259888A1, “Novel 4-aminofuropyrimidines and the use thereof” (priority 2001, published 2004).
Counter-ions that a name gives are not always drawn.

Tests used:
[1] = target: human recombinant adenosine kinase (Homo sapiens, UniProt P55263); assay: Inhibition of human recombinant adenosine kinase; type: biochemical; conditions: 14C-adenosine substrate, 0.5 mM ATP, 37° C., 20 min; read-out: Adenosine kinase inhibition (in vitro): IC50
Method: 1. Inhibition of Human Recombinant Adenosine Kinase
The test is carried out on 96-well filter plates (DE81 from Millipore, DEAE cellulose, 0.65 μm). The test buffer contains 50 mM tris/HCl pH 8.0, 10 mM DTT and 1 mM MgCl2; immediately prior to the start of the test, ATP is added in a concentration of 0.5 mM. The substrate used is ^14C-adenosine, diluted 1:30 in cold adenosine; the final concentration of the cold adenosine is 4×10^−6 M; the amount of ^14C-adenosine is chosen such that, at a volume of 10 μl, an activity of 0.5 kBq (=30 000 decays per minute) is present per well of the filter plate. The substances to be tested are dissolved in DMSO in a concentration of 10^−2 M. Further dilutions are carried out using water.
When carrying out the test, initially 80 μl of buffer are initially charged into each well. The test substances, the substrate adenosine and finally human recombinant adenosine kinase (Mathews J. J. et al., Biochemistry (1998) 37, 15607-15620) in test buffer pH 7.4 are added successively, in each case in a volume of 10 μl. The adenosine kinase concentration is chosen such that at most 30% of the total amount of adenosine are converted. The plates are then incubated at 37° C. for 20 min. The reaction is then stopped by filtration with suction. The filters are washed in each case once with ice-cold wash buffer (15 mM Tris/HCl pH 8.5) and ethanol. The plate is dried at 37° C. (about 15 min). 50 μl of scintillation solution are then pipetted into each well, and the ^14C activity is determined in a MicroBeta counter.
The inhibition of the enzyme activity by the substances tested is determined after substration of the blank value (no added enzyme) in comparison to the uninhibited enzyme (100% value).

human recombinant adenosine kinase, sequence (P55263 1-345 isoform P55263-2): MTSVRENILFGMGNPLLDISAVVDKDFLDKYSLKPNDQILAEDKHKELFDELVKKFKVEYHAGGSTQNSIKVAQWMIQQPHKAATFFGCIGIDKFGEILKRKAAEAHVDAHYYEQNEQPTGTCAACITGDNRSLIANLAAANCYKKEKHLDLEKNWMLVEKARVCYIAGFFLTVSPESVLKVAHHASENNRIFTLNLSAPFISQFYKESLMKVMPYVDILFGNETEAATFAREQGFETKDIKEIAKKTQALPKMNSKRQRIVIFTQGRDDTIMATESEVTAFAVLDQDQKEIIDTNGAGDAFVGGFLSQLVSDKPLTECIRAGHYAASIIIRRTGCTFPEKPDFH

SMILES | IC50 [1] [nM] | melting point [°C]
CN1CCN(c2ncnc3oc(-c4ccc(N)cc4)c(-c4ccc(F)cc4)c23)CC1 [Example 4, 4-[5-(4-Fluorophenyl)-4-(4-methyl-1-piperazinyl)furo[2,3-d]pyrimidin-6-yl]aniline] | 50 | 214 to 215
CN1CCN(c2ncnc3oc(-c4ccc(N)nc4)c(-c4ccccc4)c23)CC1 [Example 8, 5-[4-(4-Methyl-1-piperazinyl)-5-phenylfuro[2,3-d]pyrimidin-6-yl]-2-pyridineamine] | 80 | 229 to 231
CC(C)CNc1ncnc2oc(-c3ccc(C(=O)N4CCN(C)CC4)cc3)c(-c3ccccc3)c12 [Example 13, N-Isobutyl-6-{4-[(4-methyl-1-piperazinyl)carbonyl]phenyl}-5-phenylfuro[2,3-d]-pyrimidine-4-amine] | 100 | 
COc1ccc(-c2oc3ncnc(N(C)C4CCCCCC4)c3c2-c2ccc(OC)cc2)cc1 [Example 29, N-Cycloheptyl-5,6-bis(4-methoxyphenyl)-N-methylfuro[2,3-d]pyrimidine-4-amine] | 80 | 
CN1CCN(c2ncnc3oc(-c4ccc(NC(=O)c5cccnc5)cc4)c(-c4ccccc4)c23)CC1 [Example 32, N-{4-[4-(4-Methyl-1-piperazinyl)-5-phenylfuro[2,3-d]pyrimidin-6-yl]phenyl}-nicotinamide] | 30 | 
OCCNc1ccc(-c2oc3ncnc(N4CCC(O)CC4)c3c2-c2ccc(F)cc2)cn1 [Example 193, 1-(5-(4-Fluorophenyl)-6-{6-[(2-hydroxyethyl)amino]-3-pyridinyl]furo[2,3-d]pyrimidin-4-yl)-4-piperidinol] | 30 | 
NC1CCN(c2ccc(-c3oc4ncnc(N5CCC(N)CC5)c4c3-c3ccc(F)cc3)cn2)CC1 [Example 270] | 30 | 

Now from value to compound:

IC50 [1] [nM] | melting point [°C] | SMILES
20 |  | CN1CCN(c2ncnc3oc(-c4ccc(NC(=O)CN)cc4)c(-c4ccc(F)cc4)c23)CC1 [Example 6, N-1-{4-[5-(4-Fluorophenyl)-4-(4-methyl-1-piperazinyl)furo[2,3-d]pyrimidin-6-yl]phenylgylcinamidedihydrochloride]
10 |  | CN1CCN(c2ccc(-c3oc4ncnc(N5CCC(O)CC5)c4c3-c3ccccc3)cn2)CC1 [Example 10, 1-{6-[6-(4-Methyl-1-piperazinyl)-3-pyridinyl]-5-phenylfuro[2,3-d]pyrimidin-4-yl]-4-piperidinol]
30 |  | CN1CCN(c2ncnc3oc(-c4ccc(N5CCC5=O)cc4)c(-c4ccc(F)cc4)c23)CC1 [Example 24, 1-{4-[5-(4-Fluorophenyl)-4-(4-methyl-1-piperazinyl)furo[2,3-d]pyrimidin-6-yl]phenyl}-2-azetidinone]
20 | 228 to 235 | CN(C)CC(=O)Nc1ccc(-c2oc3ncnc(N4CCOCC4)c3c2-c2ccc(F)cc2)cc1 [Example 35]
20 | 219 to 221 | CN1CCN(c2ncnc3oc(-c4ccc(NCCO)nc4)c(-c4ccccc4)c23)CC1 [Example 37]
20 |  | OC1CCN(c2ccc(-c3oc4ncnc(N5CCC(O)CC5)c4c3-c3ccc(F)cc3)cn2)CC1 [Example 198, 1-{5-[5-(4-Fluorophenyl)-4-(4-hydroxy-1-piperidinyl)furo[2,3-d]pyrimidin-6-yl]-2-pyridinyl}-4-piperidinol]
20 |  | O=C(Nc1ccc(-c2oc3ncnc(N4CCC(O)CC4)c3c2-c2ccc(F)cc2)cc1)[C@@H]1CCCN1 [Example 201, N-{4-[5-Fluorophenyl)-4-(4-hydroxy-1-piperidinyl)furo[2.3-d]pyrimidin-6-yl]-phenyl}-L-prolinamide Hydrochloride]
5 |  | CC(=O)N1CCN(c2ccc(-c3oc4ncnc(N5CCC(O)CC5)c4c3-c3ccc(F)cc3)cn2)CC1 [Example 255]
15 |  | CCN1CCN(c2ccc(-c3oc4ncnc(N5CCN(CC)CC5)c4c3-c3ccc(F)cc3)cn2)CC1 [Example 326]
